Measurements published in patent EP1388013B1, “COMPOSITIONS AND METHODS FOR THE USE OF FIBRONECTIN FRAGMENTS IN THE DIAGNOSIS OF CANCER” (THE REGENTS OF THE UNIVERSITY OF MICHIGAN, priority 2001, dated 2002).
No end group written: not given here.

Experiments:
[1] = tested on: metastatic SUM-52 PE breast cancer cells; assay: SU-ECM invasion assay, SUM-52 PE cells; assay type: cell-based, human; conditions: PHSRN sequence of fibronectin alone; Example 4
Procedure: (§1) Adult Strongylocentrotus purpuratus sea urchins were obtained from Pacific BioMarine, and their embryos were cultured to the early pluteus stage in artificial sea water at 15°C. SU-ECM were prepared from them by treatment with nonionic detergent and sterilized by dilution in the appropriate media.
(§2) Cells were harvested by rinsing in Hanks balanced salt solution, followed by brief treatment with 0.25% trypsin, 0.02% EDTA, and pelleting and resuspension in the appropriate medium with or without 5% FCS at a density of about 50,000 cells per ml. When appropriate, purified bovine plasma fibronectin (Sigma, St. Louis, Mo), purified 120 kDa chymotryptic fragment (Gibco BRL), PHSRN or PHSCN peptides (synthesized at the Biomedical Research Core Facilities of the University of Michigan), or GRGDSP or GRGESP peptides (Gibco BRL) were added to the resuspended cells prior to placement of the cells on SU-ECM. In each well of a plate used for an invasion assay, SU-ECM were placed in 0.5 ml of the appropriate medium, and 0.5ml of the resuspended cells dropped on their exterior surfaces. Invasion assays were incubated 1 to 16 hours prior to scoring. If some circumstances, invasion assays were fixed in phosphate-buffered saline (PBS) with 2% formaldehyde for 5 minutes at room temperature, then rinsed into PBS.
(§3) Invasion assays were coded and scored blindly by microscopic examination under phase contrast at 200- and 400-fold magnification. Each cell contacting an SU-ECM was scored for its position relative to the exterior or interior surfaces. A cell was judged to have invaded if it was located on an interior surface below the focal plane passing through the upper surface of the SU-ECM, but above the focal plane passing through its lower surface. The minimum viability of the cells in each assay was always ascertained at the time of assay by determining the fraction of spread, adherent cells on the bottom of each well scored.
(§4) An invasion frequency is defined as the fraction of cells in contact with basement membranes which were located in their interiors at the time of assay. Thus, an invasion frequency of 1 denotes invasion by 100% of the cells in contact with basement membranes. Invasion frequencies were determined multiple times for each cell type assayed. For each type of cell assayed the mean and standard deviation of the invasion frequencies were calculated.
The method of Example 4 is employed, with the addition of varying concentrations of the PHSCN peptide.
Thus, the procedure in Example 4 provides a method for determining the inhibitory potential of the PHSCN peptide by comparing the number of cell invasions in the presence of the PHSCN peptide, with the number of cell invasions in the absence of the PHSCN peptide.

[2] = tested on: normal human mammary epithelial cells; assay: SU-ECM invasion assay, normal mammary epithelial cells; assay type: cell-based; conditions: SU-ECM, serum containing environment; Figure 12
Procedure: as §1
as §2, with “Cells were harvested by rinsing in Hanks balanced salt solution, followed by brief treatment with 0.25% trypsin, 0.02% EDTA, and pelleting and resuspension in the appropriate medium with or without 5% FCS at a density of about 50,000 cells per ml.” left out
as §3
as §4, with “Thus, an invasion frequency of 1 denotes invasion by 100% of the cells in contact with basement membranes.” left out, “calculated. […]” for “calculated.”

[3] = tested on: Mouse muscle satellite cells; assay: SU-ECM invasion assay, muscle satellite cells; assay type: cell-based; conditions: 1 microgram per ml, presence or absence of serum; Figure 13
Excerpt: In one example cells for the invasion assay are harvested by rinsing in Hanks' balanced salt solution, followed by brief treatment with 0.25% trypsin, 0.02% EDTA, and pelleting and resuspension in the appropriate medium with or without 5% FCS at a density of about 50,000 cells per ml. When appropriate, purified bovine plasma fibronectin (from Sigma, St. Louis, Mo), purified 120 kDa chymotryptic fragment (Gibco BRL) or PHSRN peptides (synthesized at the Biomedical Research Core Facilities of the University of Michigan) are added to the resuspended cells prior to placement of the cells on SU-ECM. […]
Invasion assays are coded and scored blindly by microscopic examination under phase contrast at 200- and 400-fold magnification. Each cell contacting an SU-ECM is scored for its position relative to the exterior or interior surfaces. […] The minimum viability of the cells in each assay is always ascertained at the time of assay by determining the fraction of spread, adherent cells on the bottom of each well scored.
An invasion frequency is defined as the fraction of cells in contact with basement membranes which are located in their interiors at the time of assay. […] Invasion frequencies are determined multiple times for each cell type assayed. For each type of cell assayed the mean and standard deviation of the invasion frequencies were calculated. […]

PHSRN [PHSRN]
induction of SUM-52 cell invasion of SU-ECM [1]: induced to invade | induction of invasive behavior of human mammary epithelial cells [2]: induces the invasive behaviors | induction of SU-ECM invasion by muscle satellite cells [3]: induced the invasion
